Measurements reported in paper PMC5482804, “YvcK, a protein required for cell wall integrity and optimal carbon source utilization, binds uridine diphosphate-sugars” (Scientific Reports, 2017).

Columns and labels:
[1] = biological target: T1, YvcK (Bacillus subtilis, UniProt O06974); assay: thermal shift assay (SYPRO Orange) with apparent KD; limited trypsin proteolysis; format: binding
T1 construct: gene mgfK; His6-tagged YvcK

[2] = biological target: T1, YvcK; assay: thermal shift assay (SYPRO Orange) with apparent KD; format: binding

T1 sequence (O06974 whole entry): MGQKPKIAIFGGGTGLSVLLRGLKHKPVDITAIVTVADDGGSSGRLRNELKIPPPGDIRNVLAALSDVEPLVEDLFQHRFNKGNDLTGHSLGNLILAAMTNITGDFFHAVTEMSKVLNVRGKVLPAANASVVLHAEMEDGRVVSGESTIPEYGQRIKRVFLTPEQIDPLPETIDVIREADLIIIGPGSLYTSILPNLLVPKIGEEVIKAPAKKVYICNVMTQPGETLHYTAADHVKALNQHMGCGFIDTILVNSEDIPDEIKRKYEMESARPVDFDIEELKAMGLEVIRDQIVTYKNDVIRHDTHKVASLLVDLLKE

Row | Structure (SMILES) | Kd [1] [mM] | Kd [2] [mM]
1 | CC(=O)N[C@H]1[C@@H](OP(=O)(O)OP(=O)(O)OC[C@H]2O[C@@H](n3ccc(=O)[nH]c3=O)[C@H](O)[C@@H]2O)O[C@H](CO)[C@@H](O)[C@@H]1O [UDP-GlcNAc] | 0.41 ± 0.24 | –
2 | O=c1ccn([C@@H]2O[C@H](COP(=O)(O)OP(=O)(O)O)[C@@H](O)[C@H]2O)c(=O)[nH]1 [UDP] | – | 6.21 ± 0.62
